Assay results: patent publication US10155802B2, “Locally-active anticoagulants and anti-inflammatory agents” (priority 2011, dated 2018)
No end group written: not given here.

Columns and labels:
pooled human plasma [1] = assay: Prothrombin time (PT, thromboplastin) clotting assay; format: biochemical; details: for IC50: 37° C., concentration that prolongs clotting time by 50%
Method: (§1) Prothrombin (clotting) time (PT) or activated partial thromboplastin (clotting) time (APTT) assays were carried out at certain concentrations of the thrombin inhibitors of the present invention using pooled human plasma with addition of thromboplastin or activated partial thromboplastin to initiate clotting. The assays employed kits from Biopool International (Ventura, Calif., USA) or from Pacific Haemostasis (Middletown, Va., USA) using the procedures supplied by the manufacturer. Briefly, the stock solution of an inhibitor (with the concentration determined using UV-based OD determination, see Gill 1989) is diluted in a buffer of 20 mM HEPES and 150 mM NaCl at pH 7.4 (HBS) to a final volume of 50 μL, to which is added the reconstituted normal plasma (Product #CMS-176172 from Fisher Scientific) in an equal volume. This solution mixture is equilibrated at 37° C. for 2 minutes before 50 μL of the APTT-10XL solution (CMS-022927) is introduced forcibly to ensure proper mixing. This new mixture was incubated at 37° C. for another 5 minutes, which is followed by the addition of 50 μL of 0.02 M […] (Fisher Scientific CMS-022925) pre-warmed at 37° C. For the prothrombin time (PT) assay, an inhibitor is diluted in HBS to a final volume of 25 μL, to which is added the reconstituted control plasma (Fisher Scientific CMS-176172) in an equal volume. This solution mixture is equilibrated at 37° C. for 5 minutes before addition of 100 μL of the thromboplastin solution (CMS-176099) pre-warmed at 37° C. For APTT assays, inhibitory activities of the peptides are expressed as concentrations needed to achieve 50% of the maximum delay in clotting time (MCT50) as compared to the absence of thrombin inhibitors (Maraganore 1989). For PT assays, inhibitory activities are measured as the concentrations of the peptides that prolong the clotting time by 50% (IC50) of that of the normal control plasma (Maraganore 1990). PT and APTT assays were also carried out using slightly modified experimental procedures. Thus, 50 μL of a control plasma (Pacific Hemostasis) solution was added to 100 μL HBS (20 mM HEPES and 150 mM NaCl at pH 7.4) containing varied concentrations of the peptides of this invention. After incubation at 37° C. for 5 min, the mixture was added to 50 μL of the thromboplastin or activated partial thromboplastin reagent. Clotting of the plasma was monitored by change in absorbance at 420 nm using a SpectraMax™ plate reader.

[2] = tested on: FeCl3-induced arterial thrombosis (carotid artery); assay: FeCl3-induced arterial model of thrombosis in rats (time to occlusion); format: in vivo; details: rat, single-bolus injection
Method: Male Sprague-Dawley rats (250-310 g; Charles River Laboratories, St-Constant, QC, Canada) were acclimated for at least 3 days prior to the start of the study. Animals were housed in microisolator cages and were kept on a 12-hr light/dark cycle with constant temperature and humidity. Food and water were provided ad libitum. Various anti-thrombotic agents and peptides of this invention were dissolved in saline (0.9% sodium chloride) prior to use.
The FeCl3-induced arterial model of thrombosis in rats was also generated as described by Wang and Xu (Wang 2005) with some modifications (Couture 2011). Briefly, rats were anesthetized with a 2.5% isoflurane/oxygen mixture and placed on a heat source (35-37° C.). An incision was made over the right carotid artery, and a segment of the artery was exposed via blunt dissection. A Doppler flow probe (Model MA1PRB, Transonic System Inc., Ithaca, N.Y., USA) connected to a perivascular flow module (TS420, Transonic System Inc., Ithaca, N.Y., USA) was then attached to the carotid artery to monitor blood flow. Data were collected and analyzed using the MP100 Biopac™ Systems (Biopac Systems, Santa Barbara, Calif., USA), and the AcgKnowledge™ software (Biopac Systems, Santa Barbara, Calif., USA), respectively. Baseline blood flow was recorded for a minimum of 15 minutes until readings stabilized. Aquasonic 100 gel (Parker Laboratories, Inc., Fairfield, N.J., USA) was added to help conductivity and any fluid accumulating at the site of surgery was removed during data sampling without touching the probe. […] One minute after drug administration, a piece of filter paper (Gel Blot Paper, GB003, Whatman, Piscataway, N.J., USA; 7 mm diameter) saturated with 20% FeCl3 (EMD Chemicals Inc., Gibbstown, N.J., USA) was placed on the exposed surface of the carotid artery and incubated for 3.5 minutes. During the application of FeCl3, the neck region was covered with aluminum foil. At the end of the incubation period, the filter paper was removed and the exposed carotid was covered with a saline-soaked gauze. Time to occlusion was defined as the time from the application of FeCl3 until blood flow decreased to zero. […] Preparing and processing each animal took approximately 1 hr and 7 animals were treated each day. Control animals were always included when the other treatments were being administered. For this reason, the number of animals in the control group is higher than that of the treated-groups.
Statistical analysis was conducted using GraphPad™ Prism (GraphPad Software Inc., San Diego Calif., USA). Data were analyzed using one-way ANOVA with post-hoc Bonferroni correction for multiple comparisons. The relationship between thrombus weight and thrombus volume was determined by linear regression. […]

pooled human plasma [3] = assay: Activated partial thromboplastin time (APTT) clotting assay; format: biochemical; details: 37° C.; concentration for 50% of maximum delay in clotting time; read-out: MTC50 (APTT)
Method: as §1

[4] = tested on: human coagulation proteome; assay: Synthetic coagulation proteome assay (thrombin generation); format: biochemical; details: 37° C.
Method: This assay is carried out using an established protocol as described previously (Brummel-Ziedens 2008). Briefly, a pro-cofactor solution containing re-lipidated tissue factor (10 pM; molar ratio PCPS:TF=5000) was incubated with 4 μM PCPS in HBS (20 mM HEPES and 150 mM NaCl at pH 7.4) and 2 mM CaCl2 for 8 min at 37° C. Factor V (40 nM) and Factor VIII (1.4 nM) were then added to the mixture prior to initiation of the reaction to activate the protease zymogens in the blood coagulation cascade. The activation reaction was initiated by addition of the pro-cofactor solution to a zymogen solution containing prothrombin (2.8 μM), Factor VII (20 nM), Factor Vila (0.2 nM), FX (340 nM), Factor IX (180 nM), Factor XI (60 nM), TFPI (5 nM), antithrombin III (6.8 μM) […]
At selected time points after initiation of the reaction, 10 μL aliquots were withdrawn from the reaction mixture and quenched in 20 mM EDTA in HBS (pH 7.4) containing 0.2 mM Spectrozyme™ TH and assayed immediately for the proteolytic activity of thrombin. The hydrolysis of Spectrozyme™ TH was monitored by the change in absorbance at 405 nm using a SpectraMax™ plate reader (Molecular Devices Corp., Menlo Park, Calif., USA). Concentration of thrombin generated by the reaction was calculated from a standard curve prepared by serial dilutions of known concentrations of α-thrombin using the fibrinogen clotting assay (DiMaio 1990). Fibrinogen solution was freshly prepared by dissolving about 0.5% (w/v) fibrinogen in 50 mM Tris-HCl, 100 mM NaCl, 0.1% PEG-8000, pH 7.6 and filtering the resulting solution through a hydrophilic membrane of 0.45 μm polyvinylidene fluoride (PVDF) with low protein binding. The concentration of fibrinogen after filtration was determined by using the extinction coefficient of 15.0 for 1% fibrinogen at 280 nm. […] Thrombin-induced clotting of fibrinogen was followed at 25° C. by measuring the optical absorbance at 420 nm. The clotting time was obtained from extrapolation of the slope at the point of inflection to the zero absorbance baseline. […]

rat-tail collagen type I = molecular target: T1, rat-tail collagen type I (Rattus norvegicus, UniProt P02454+P02466); assay: Peptide-collagen binding by reduction of collagen fibril alignment (deuterium coupling constant); details: collagen gelation under magnetic field in presence of peptide
T1 construct: purchased BD Bioscience; host or cells: rat tail (tissue-derived)
T1 sequence (P02454 152-1207): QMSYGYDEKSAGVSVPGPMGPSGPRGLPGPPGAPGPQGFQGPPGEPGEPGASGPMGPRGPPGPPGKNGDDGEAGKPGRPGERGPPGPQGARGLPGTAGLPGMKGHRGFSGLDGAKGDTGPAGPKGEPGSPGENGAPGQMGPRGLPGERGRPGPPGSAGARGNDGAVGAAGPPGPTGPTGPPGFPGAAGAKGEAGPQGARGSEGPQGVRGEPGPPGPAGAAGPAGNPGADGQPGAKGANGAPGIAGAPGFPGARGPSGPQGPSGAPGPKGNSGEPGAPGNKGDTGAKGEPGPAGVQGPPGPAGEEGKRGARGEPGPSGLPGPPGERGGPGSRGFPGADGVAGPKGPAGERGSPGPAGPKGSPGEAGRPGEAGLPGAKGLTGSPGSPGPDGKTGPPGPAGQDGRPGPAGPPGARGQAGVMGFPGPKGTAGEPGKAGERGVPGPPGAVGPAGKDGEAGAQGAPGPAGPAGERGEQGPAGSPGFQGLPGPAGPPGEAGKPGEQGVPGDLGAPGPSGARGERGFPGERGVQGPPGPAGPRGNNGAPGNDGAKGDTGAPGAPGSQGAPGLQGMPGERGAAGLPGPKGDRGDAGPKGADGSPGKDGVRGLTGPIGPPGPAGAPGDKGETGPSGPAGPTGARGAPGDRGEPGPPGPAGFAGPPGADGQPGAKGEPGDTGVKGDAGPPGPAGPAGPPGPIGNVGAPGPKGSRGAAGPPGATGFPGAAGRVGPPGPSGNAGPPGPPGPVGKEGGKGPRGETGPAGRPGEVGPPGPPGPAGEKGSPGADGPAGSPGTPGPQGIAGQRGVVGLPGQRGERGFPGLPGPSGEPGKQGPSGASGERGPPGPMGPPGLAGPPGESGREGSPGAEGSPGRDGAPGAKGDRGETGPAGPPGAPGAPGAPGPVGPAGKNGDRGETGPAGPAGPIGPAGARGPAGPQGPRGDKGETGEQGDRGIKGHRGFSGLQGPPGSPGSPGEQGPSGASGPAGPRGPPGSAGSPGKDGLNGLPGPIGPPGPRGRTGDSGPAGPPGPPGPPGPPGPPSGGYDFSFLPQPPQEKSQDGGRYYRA
T1 sequence (P02466 86-1125): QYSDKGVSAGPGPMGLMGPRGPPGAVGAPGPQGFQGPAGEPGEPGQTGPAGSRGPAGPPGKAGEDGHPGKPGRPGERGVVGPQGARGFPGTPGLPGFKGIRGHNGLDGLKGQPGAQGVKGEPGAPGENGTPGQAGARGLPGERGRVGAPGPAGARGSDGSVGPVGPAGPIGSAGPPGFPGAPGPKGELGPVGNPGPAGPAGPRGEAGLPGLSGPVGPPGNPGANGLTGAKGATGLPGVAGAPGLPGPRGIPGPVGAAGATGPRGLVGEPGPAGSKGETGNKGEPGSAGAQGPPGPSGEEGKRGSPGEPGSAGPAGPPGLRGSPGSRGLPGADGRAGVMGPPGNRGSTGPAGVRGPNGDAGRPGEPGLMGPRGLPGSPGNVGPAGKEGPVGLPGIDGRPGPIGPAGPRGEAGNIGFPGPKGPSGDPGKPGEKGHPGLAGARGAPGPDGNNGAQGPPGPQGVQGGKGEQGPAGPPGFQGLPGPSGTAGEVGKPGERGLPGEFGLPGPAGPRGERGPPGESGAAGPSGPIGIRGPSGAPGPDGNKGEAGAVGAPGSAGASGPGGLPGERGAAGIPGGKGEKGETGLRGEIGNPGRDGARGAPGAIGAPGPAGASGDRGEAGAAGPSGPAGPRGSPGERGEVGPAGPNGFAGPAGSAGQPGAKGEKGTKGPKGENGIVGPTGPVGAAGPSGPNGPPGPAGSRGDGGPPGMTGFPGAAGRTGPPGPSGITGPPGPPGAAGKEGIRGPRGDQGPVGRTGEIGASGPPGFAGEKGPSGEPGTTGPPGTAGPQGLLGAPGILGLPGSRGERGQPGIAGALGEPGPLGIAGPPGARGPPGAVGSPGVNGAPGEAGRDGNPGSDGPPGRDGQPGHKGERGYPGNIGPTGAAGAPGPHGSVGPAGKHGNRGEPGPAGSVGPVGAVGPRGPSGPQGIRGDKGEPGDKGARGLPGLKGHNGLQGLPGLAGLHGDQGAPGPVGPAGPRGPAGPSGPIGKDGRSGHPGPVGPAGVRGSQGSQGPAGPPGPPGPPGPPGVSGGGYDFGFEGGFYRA
Excerpt: High-resolution proton NMR spectroscopy is used to illustrate the behavior of the linker peptides […] (SEQ ID NO: 2 or gb1), […] (SEQ ID NO: 3 or trpzip6), […] (SEQ ID NO: 4 or trpzip5) and […] (SEQ ID NO: 5 or trpzip4) in aqueous solutions. The peptides were synthesized using standard Fmoc chemistry and purified by reverse-phase HPLC. Their identity was confirmed by mass-spectroscopy and NMR spectroscopy. For NMR studies, a volume of (400-X) μL of a peptide dissolved in pure water was mixed with 50 μL of a 10×PBS (phosphate-buffered saline) supplemented by sodium phosphate to a final concentration of 50 mM and with 50 μL of deuterated water (D2O) to form the reference sample (where X=0) and with a certain volume (X μL) of rat-tail collagen type I (at 3.6 to 4 mg/ml in 0.02 N acetic acid from BD Bioscience), (where X is adjusted to achieve the desired final concentration of collagen), with 50 μL of the 10× modified PBS and with 50 μL of deuterated water (D2O) to form the peptide-collagen complex. The pH value of the reference peptide samples was adjusted to match the pH of the final peptide-collagen complex in order to facilitate NMR spectral comparison.
The peptide-collagen solutions were subjected to gelation under magnetic field guidance (see Example 7) followed by the measurement of fibril alignment (Ma 2008) as a semi-quantitative indication of peptide-collagen binding. […]

Compound | IC50 (pooled human plasma [1]) | reduction of arterial occlusion [2] | further results
Bivalirudin [reference compound] | 0.093 µM | consistently better efficacy | 
CC1CNc2c(cccc2S(=O)(=O)N[C@@H](CCCNC(=N)N)C(=O)N2CC[C@@H](C)C[C@@H]2C(=O)O)C1 (some centres unmarked) [Argatroban, reference compound] |  | consistently better efficacy | 
CC[C@H](C)[C@H](N)C(=O)N[C@@H](CCCNC(=N)N)C(=O)N[C@@H](Cc1ccccc1)C(=O)N[C@H](C(=O)N[C@@H](CC(=O)O)C(=O)NCC(=O)N[C@@H](CCC(=O)O)C(=O)NCC(=O)N[C@H](C(=O)NCC(=O)N[C@@H](CO)C(=O)NCC(=O)N[C@@H](CO)C(=O)NCC(=O)N[C@@H](CO)C(=O)NCC(=O)N[C@@H](CO)C(=O)NCC(=O)N[C@@H](CC(=O)O)C(=O)N[C@@H](Cc1ccccc1)C(=O)N[C@@H](CCC(=O)O)C(=O)N[C@@H](CCC(=O)O)C(=O)N[C@H](C(=O)N1CCC[C@H]1C(=O)N[C@@H](CCC(=O)O)C(=O)N[C@@H](CCC(=O)O)C(=O)N[C@@H](Cc1ccc(O)cc1)C(=O)N[C@@H](CC(C)C)C(=O)N[C@@H](CCC(N)=O)C(=O)O)[C@@H](C)CC)[C@@H](C)O)[C@@H](C)O [MH2-GS] | 0.2 µM |  | anticoagulant effect in PT versus APTT assays (pooled human plasma [1]; in words): more potent effect in delaying the prothrombin time as compared to APTT; EC50 (pooled human plasma [3]): 0.9 µM; delay of thrombin burst / onset of thrombin generation [4]: clear dose-dependency for the delay of thrombin burst
GEWTWDDATKTWTWTE (not fully specified (C-terminus)) [trpzip4] |  |  | reduction of deuterium coupling constant (degree of collagen fibril alignment) (rat-tail collagen type I): more than 1.0 Hz
